# Reference: the supplement of paper PMC10307832
# What was measured:
# Assay in all cases: relative viability (nuclei count vs DMSO), 5 days (fraction); higher = more cells survive
# [1] = compound: CO[C@H]1C[C@@H]2CC[C@@H](C)[C@@](O)(O2)C(=O)C(=O)N2CCCC[C@H]2C(=O)O[C@H]([C@H](C)C[C@@H]2CC[C@@H](OCCO)[C@H](OC)C2)CC(=O)[C@H](C)/C=C(\C)[C@@H](O)[C@@H](OC)C(=O)[C@H](C)C[C@H](C)/C=C/C=C/C=C/1C [Everolimus] + N=C(N)NC(=N)NCCc1ccccc1 [Phenformin] (partner 250 µM)
# In short: (§1)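 Values are medians from duplicate plates. Each reflects relative viability, defined as the nuclei count of treated wells over that of vehicle wells. Lung cancer cell lines in 1536-well plates were pin-tool dosed one day after seeding with one drug alone or with a fixed anchor-drug dose plus five library-drug doses (not always all listed) in √10 steps, then fixed, stained and imaged at 4× after 5 days.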
# [2] = compound: CO[C@H]1C[C@@H]2CC[C@@H](C)[C@@](O)(O2)C(=O)C(=O)N2CCCC[C@H]2C(=O)O[C@H]([C@H](C)C[C@@H]2CC[C@@H](OCCO)[C@H](OC)C2)CC(=O)[C@H](C)/C=C(\C)[C@@H](O)[C@@H](OC)C(=O)[C@H](C)C[C@H](C)/C=C/C=C/C=C/1C [Everolimus] + COc1cccc2cc(-c3nc([C@H]4CC[C@H](C(=O)O)CC4)n4ncnc(N)c34)[nH]c12 [OSI-027] (partner 0.5 µM)
# In short: as §1
# [3] = compound: CO[C@H]1C[C@@H]2CC[C@@H](C)[C@@](O)(O2)C(=O)C(=O)N2CCCC[C@H]2C(=O)O[C@H]([C@H](C)C[C@@H]2CC[C@@H](OCCO)[C@H](OC)C2)CC(=O)[C@H](C)/C=C(\C)[C@@H](O)[C@@H](OC)C(=O)[C@H](C)C[C@H](C)/C=C/C=C/C=C/1C [Everolimus] + CC(=O)Nc1cccc(-n2c(=O)n(C3CC3)c(=O)c3c(Nc4ccc(I)cc4F)n(C)c(=O)c(C)c32)c1 [Trametinib] (partner 0.02 µM)
# In short: as §1
# [4] = compound: CO[C@H]1C[C@@H]2CC[C@@H](C)[C@@](O)(O2)C(=O)C(=O)N2CCCC[C@H]2C(=O)O[C@H]([C@H](C)C[C@@H]2CC[C@@H](OCCO)[C@H](OC)C2)CC(=O)[C@H](C)/C=C(\C)[C@@H](O)[C@@H](OC)C(=O)[C@H](C)C[C@H](C)/C=C/C=C/C=C/1C [Everolimus] + C[C@@H](Oc1cc(-c2cnn(C3CCNCC3)c2)cnc1N)c1c(Cl)ccc(F)c1Cl [Crizotinib] (partner 1 µM)
# In short: as §1
Cell Line,relative viability ([1]; first compound 0.01 µM),relative viability ([1]; first compound 0.03162 µM),relative viability ([1]; first compound 0.1 µM),relative viability ([1]; first compound 0.3162 µM),relative viability ([1]; first compound 1 µM),relative viability ([2]; first compound 0.01 µM),relative viability ([2]; first compound 0.03162 µM),relative viability ([2]; first compound 0.1 µM),relative viability ([2]; first compound 0.3162 µM),relative viability ([2]; first compound 1 µM),relative viability ([3]; first compound 0.01 µM),relative viability ([3]; first compound 0.03162 µM),relative viability ([3]; first compound 0.1 µM),relative viability ([3]; first compound 0.3162 µM),relative viability ([3]; first compound 1 µM),relative viability ([4]; first compound 0.01 µM),relative viability ([4]; first compound 0.03162 µM),relative viability ([4]; first compound 0.1 µM),relative viability ([4]; first compound 0.3162 µM),relative viability ([4]; first compound 1 µM)
LCLC-97TM1,0.46,0.513,0.483,0.353,0.437,0.455,0.362,0.36,0.337,0.458,0.153,0.164,0.126,0.155,0.147,0.406,0.28,0.485,0.291,0.216
LCLC-103H,0.309,0.274,0.294,0.309,0.331,0.347,0.385,0.402,0.367,0.366,0.605,0.659,0.661,0.601,0.591,1.1,0.943,1.03,0.841,0.818
LK-2,0.299,–,0.154,0.166,0.233,0.152,0.153,0.167,0.162,0.172,0.688,0.468,0.425,0.421,0.438,0.24,–,0.22,0.284,0.227
LOU-NH91,0.636,0.596,0.609,0.541,0.584,0.529,0.57,0.531,0.524,0.516,0.626,0.695,0.667,0.612,0.623,0.664,0.695,0.627,0.573,0.58
LU99A,0.665,0.662,0.605,0.503,0.587,0.234,0.243,0.245,0.248,0.241,0.35,0.268,0.298,0.314,0.354,0.415,0.413,0.35,0.451,0.351
LXF-289,0.526,0.541,0.507,0.574,0.512,0.654,0.604,0.529,0.572,0.576,0.625,0.537,0.574,0.508,0.528,0.885,0.978,0.904,0.88,0.888
NCI-H23,0.641,0.607,0.508,0.593,0.496,0.382,0.35,0.362,0.41,0.378,0.248,0.204,0.218,0.252,0.216,0.486,0.33,0.288,0.398,0.359
